Data from the supplement of paper PMC10307832.

Legend:
Assay in all cases: relative viability (nuclei count vs DMSO), 5 days (fraction); higher = more cells survive
kb NB 142-70 + Lapatinib = compound: C1CSC2=C(C(=O)N1)SC3=C2C=C(C=C3)O [kb NB 142-70] + CS(=O)(=O)CCNCc1ccc(-c2ccc3ncnc(Nc4ccc(OCc5cccc(F)c5)c(Cl)c4)c3c2)o1 [Lapatinib] (partner 2 µM)
In short: (§1)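 Lung cancer cell lines in 1536-well plates got either a single drug or a fixed anchor-drug dose together with five library-drug doses (not always all listed) in √10 steps, by pin tool, on the day after seeding. Nuclei were counted after 5 days, and relative viability is the treated-to-vehicle ratio of nuclei counts. Values are medians of duplicate plates.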

kb NB 142-70 + Alpelisib = compound: C1CSC2=C(C(=O)N1)SC3=C2C=C(C=C3)O [kb NB 142-70] + Cc1nc(NC(=O)N2CCC[C@H]2C(N)=O)sc1-c1ccnc(C(C)(C)C(F)(F)F)c1 [Alpelisib] (partner 2 µM)
In short: as §1

kb NB 142-70 + Dasatinib = compound: C1CSC2=C(C(=O)N1)SC3=C2C=C(C=C3)O [kb NB 142-70] + Cc1nc(Nc2ncc(C(=O)Nc3c(C)cccc3Cl)s2)cc(N2CCN(CCO)CC2)n1 [Dasatinib] (partner 0.075 µM)
In short: as §1

[1] = compound: NCC(=O)Nc1ccc(-n2nc(C(F)(F)F)cc2-c2ccc3c(ccc4ccccc43)c2)cc1 + N=C(N)NC(=N)NCCc1ccccc1 [Phenformin] (partner 250 µM)
In short: as §1

[2] = compound: NCC(=O)Nc1ccc(-n2nc(C(F)(F)F)cc2-c2ccc3c(ccc4ccccc43)c2)cc1 + O=C(c1cc(Cc2n[nH]c(=O)c3ccccc23)ccc1F)N1CCN(C(=O)C2CC2)CC1 [Olaparib] (partner 8 µM)
In short: as §1

Row | Cell Line | relative viability (kb NB 142-70 + Lapatinib; first compound 0.1 µM) | relative viability (kb NB 142-70 + Lapatinib; first compound 1 µM) | relative viability (kb NB 142-70 + Lapatinib; first compound 3.162 µM) | relative viability (kb NB 142-70 + Alpelisib; first compound 0.1 µM) | relative viability (kb NB 142-70 + Alpelisib; first compound 1 µM) | relative viability (kb NB 142-70 + Alpelisib; first compound 3.162 µM) | relative viability (kb NB 142-70 + Dasatinib; first compound 0.1 µM) | relative viability (kb NB 142-70 + Dasatinib; first compound 1 µM) | relative viability (kb NB 142-70 + Dasatinib; first compound 3.162 µM) | relative viability ([1]; first compound 0.02 µM) | relative viability ([1]; first compound 0.06325 µM) | relative viability ([1]; first compound 0.2 µM) | relative viability ([1]; first compound 0.6325 µM) | relative viability ([1]; first compound 2 µM) | relative viability ([2]; first compound 0.02 µM) | relative viability ([2]; first compound 0.06325 µM) | relative viability ([2]; first compound 0.2 µM) | relative viability ([2]; first compound 0.6325 µM) | relative viability ([2]; first compound 2 µM)
1 | LC-2-ad | 0.96 | 0.885 | 0.937 | 0.858 | 0.958 | 0.813 | 0.609 | 0.607 | 0.463 | 0.531 | 0.643 | 0.609 | 0.614 | 0.649 | 0.676 | 0.801 | 0.728 | 0.719 | 0.698
2 | LCLC-97TM1 | 0.992 | 0.685 | 1.08 | 0.236 | 0.245 | 0.181 | 0.787 | 0.95 | 0.882 | 0.397 | 0.434 | 0.466 | 0.442 | 0.442 | 0.538 | 0.421 | 0.317 | 0.409 | 0.364
3 | LK-2 | 0.802 | 0.734 | 0.536 | 1.1 | 0.72 | 0.438 | 0.231 | 0.231 | 0.229 | 0.31 | 0.638 | 0.425 | 0.496 | 0.435 | 0.758 | 0.78 | 0.799 | 0.666 | 0.671
4 | LOU-NH91 | 0.724 | 0.73 | 0.581 | 0.705 | 0.675 | 0.492 | 0.486 | 0.508 | 0.556 | 0.652 | 0.748 | 0.686 | 0.671 | 0.778 | 0.967 | 0.959 | 0.933 | 0.922 | 0.995
5 | LU99A | 0.977 | 0.858 | 0.71 | 0.517 | 0.499 | 0.354 | 0.496 | 0.583 | 0.405 | 0.76 | 0.877 | 0.908 | 0.824 | 0.921 | 0.284 | 0.289 | 0.261 | 0.263 | 0.322
6 | LXF-289 | 0.917 | 0.909 | 0.94 | 1.03 | 1.02 | 0.917 | 0.212 | 0.215 | 0.21 | 0.516 | 0.527 | 0.494 | 0.506 | 0.56 | 1.05 | 1.11 | 1.03 | 1.04 | 1.07
7 | NCI-H23 | 1.23 | 0.872 | 0.413 | 0.553 | 0.586 | 0.315 | 0.792 | 0.713 | 0.287 | 0.702 | 0.801 | 0.802 | 0.823 | 0.799 | 0.33 | 0.442 | 0.364 | 0.329 | 0.336
8 | NCI-H322M | 0.568 | 0.646 | 0.617 | 0.813 | 0.815 | 0.882 | 0.24 | 0.278 | 0.269 | 0.808 | 0.739 | 0.766 | 0.747 | 0.811 | 0.865 | 0.759 | 0.782 | 0.802 | 0.794
9 | NCI-H358 | 0.45 | 0.396 | 0.161 | 0.885 | 0.578 | 0.131 | 0.15 | 0.109 | 0.127 | 0.335 | 0.319 | 0.293 | 0.365 | 0.343 | 0.613 | 0.58 | 0.632 | 0.636 | 0.606
10 | NCI-H460 | 1.02 | 1.03 | 0.48 | 0.521 | 0.435 | 0.244 | 0.504 | 0.422 | 0.336 | 0.482 | 0.504 | 0.505 | 0.537 | 0.458 | 0.368 | 0.41 | 0.458 | 0.354 | 0.446
11 | NCI-H520 | 0.826 | 0.848 | 0.464 | 0.728 | 0.961 | 0.513 | 0.168 | 0.197 | 0.173 | 0.574 | 0.628 | 0.641 | 0.625 | 0.618 | 0.404 | 0.285 | 0.377 | 0.339 | 0.334
12 | NCI-H596 | 1.02 | 0.931 | 0.884 | 0.454 | 0.483 | 0.347 | 0.551 | 0.571 | 0.442 | 0.72 | 0.877 | 0.841 | 0.721 | 0.728 | 0.627 | 0.77 | 0.739 | 0.714 | 0.658
13 | NCI-H647 | 1.11 | 1.08 | 0.836 | 1.1 | 1.43 | 0.698 | 0.185 | 0.189 | 0.119 | 0.451 | 0.576 | 0.629 | 0.463 | 0.558 | 0.593 | 0.573 | 0.657 | 0.486 | 0.483
14 | NCI-H650 | 1.05 | 1.17 | 0.657 | 1.13 | 1.19 | 0.942 | 0.495 | 0.475 | 0.377 | 0.422 | 0.44 | 0.48 | 0.379 | 0.474 | 0.395 | 0.415 | 0.421 | 0.399 | 0.396
15 | NCI-H661 | 0.511 | 0.478 | 0.492 | 0.812 | 0.526 | 0.613 | 0.916 | 0.89 | 0.796 | 0.267 | 0.259 | 0.268 | 0.295 | 0.27 | 0.773 | 0.731 | 0.763 | 0.713 | 0.73
16 | NCI-H727 | 0.808 | 1.03 | 0.905 | 0.65 | 0.72 | 0.495 | 0.427 | 0.354 | 0.272 | 0.63 | 0.606 | 0.561 | 0.41 | 0.728 | 0.504 | 0.801 | 0.754 | 0.666 | 0.583
17 | NCI-H838 | 0.934 | 0.913 | 1.03 | 1.02 | 1.06 | 0.91 | 0.268 | 0.282 | 0.301 | 0.51 | 0.661 | 0.634 | 0.548 | 0.497 | 0.853 | 0.766 | 0.815 | 0.592 | 0.572
18 | NCI-H1355 | 0.993 | 0.943 | 1.07 | 0.924 | 0.86 | 0.822 | 0.7 | 0.642 | 0.64 | 0.465 | 0.497 | 0.419 | 0.483 | 0.522 | 0.722 | 0.785 | 0.729 | 0.757 | 0.738
19 | NCI-H1395 | 1.23 | 1.14 | 0.816 | 1.29 | 1.15 | 0.66 | 0.393 | 0.443 | 0.43 | 0.5 | 0.422 | 0.434 | 0.469 | 0.475 | 0.483 | 0.469 | 0.469 | 0.519 | 0.437
20 | NCI-H1437 | 0.728 | 0.78 | 0.85 | 1.01 | 0.999 | 0.875 | 0.485 | 0.459 | 0.433 | 0.247 | 0.302 | 0.331 | 0.308 | 0.339 | 0.623 | 0.62 | 0.688 | 0.651 | 0.664
21 | NCI-H1651 | 0.902 | 0.789 | 0.471 | 0.938 | 0.934 | 0.364 | 0.438 | 0.44 | 0.174 | 0.313 | 0.387 | 0.327 | 0.371 | 0.313 | 0.177 | 0.177 | 0.175 | 0.175 | 0.173
22 | NCI-H1666 | 0.637 | 0.598 | 0.335 | 0.805 | 1.01 | 0.632 | 0.849 | 0.808 | 0.732 | 0.552 | 0.566 | 0.539 | 0.586 | 0.579 | 0.734 | 0.83 | 0.824 | 0.747 | 0.776
23 | NCI-H1734 | 1.06 | 0.895 | 0.523 | 0.659 | 0.607 | 0.46 | 0.449 | 0.421 | 0.278 | 0.421 | 0.365 | 0.414 | 0.422 | 0.395 | 0.629 | 0.603 | 0.678 | 0.569 | 0.575
24 | NCI-H1755 | 1.02 | 1.04 | 1.02 | 0.968 | 0.915 | 0.929 | 0.456 | 0.425 | 0.419 | 0.582 | 0.587 | 0.577 | 0.606 | 0.607 | 0.898 | 0.854 | 0.933 | 0.914 | 0.923
25 | NCI-H1792 | 0.87 | 0.85 | 1.03 | 0.778 | 0.732 | 0.891 | 0.757 | 0.816 | 0.769 | 0.325 | 0.364 | 0.297 | 0.337 | 0.411 | 0.597 | 0.518 | 0.404 | 0.385 | 0.511
26 | NCI-H1793 | 0.57 | 0.749 | 0.861 | 0.589 | 0.711 | 0.636 | 0.388 | 0.424 | 0.443 | 0.258 | 0.376 | 0.412 | 0.392 | 0.422 | 1.05 | 0.957 | 0.921 | 0.852 | 1.02
27 | NCI-H1915 | 1.05 | 1 | 0.845 | 1.07 | 1.08 | 0.648 | 0.323 | 0.339 | 0.248 | 0.367 | 0.364 | 0.371 | 0.349 | 0.369 | 0.256 | 0.287 | 0.25 | 0.255 | 0.257
28 | NCI-H1944 | 0.865 | 0.827 | 0.936 | 0.874 | 0.817 | 0.853 | 0.207 | 0.243 | 0.201 | 0.191 | 0.233 | 0.204 | 0.201 | 0.207 | 0.463 | 0.384 | 0.4 | 0.388 | 0.397
